Laboratory results reported in publication PMC11420065 (Molecular Psychiatry, 2024).

Key:
human 5-HT2AR [1] = biological target: T1, human 5-HT2AR (Homo sapiens, UniProt P28223); experiment: EMTA ebBRET biosensor, agonist mode, Gαi/o/z family (Rap1GAP-RlucII/rGFP-CAAX); conditions: for Emax (%) ± SEM: normalized as % response of 5-HT, NA: no activity
Method: (§1) For recruitment of the β-arrestins, cells were transfected with the receptor, β-arrestin1-RlucII or β-arrestin2-RlucII, GRK2 and rGFP-CAAX.
(§2) For in vitro experiments, curves fitting was conducted using GraphPad Prism 9 (version 9.0.0). Concentration response curves were obtained using a three-parameter logistic nonlinear regression model and the results are expressed as mean ± SEM of at least three independent experiments. […] Ligand-promoted BRET (ΔBRET) was determined by subtracting the BRET ratio of the vehicle condition from the BRET ratio of the ligand-treated conditions.

human 5-HT2AR [2] = biological target: T1, human 5-HT2AR; experiment: EMTA ebBRET biosensor, agonist mode, β-arrestin recruitment; conditions: baseline vs maximal response, words
Method: as §1, §2

[3] = system: D-myo-inositol 1 monophosphate (IP1); experiment: IP1 levels in frontal cortex of treated mice (IP-One HTRF); conditions: 1 h
Method: C57BL/6 wild-type males, sourced from JAX farms, 11 weeks of age at the time of experiment, were housed in groups of up to five littermates with food and water ad libitum in a vivarium with a 12 h light/dark cycle at 23 °C. Animals were allowed to get accustomed to the vivarium at least 1 week prior to the experiment. […] All efforts were made to minimize animal suffering and the number of animals used.
Briefly, frontal cortices were harvested and homogenized in a 10 µL per 1 mg of tissue solution consisting of 10% IP-One Gq Kit Lysis and Detection Buffer in Stimulation Buffer. The clarified homogenates (17,000 × g for 15 min) were plated in duplicate by sequential addition of 2 µL to a 18 µL mix of detection reagents in Lysis and Detection Buffer.
The mice used in the studies came from the same colony and were split randomly between the experimental groups. The investigators were blinded to group allocation during compounds administration to mice. Data are presented as mean ± SEM of 5 mice for each treated group.
Data are normalized in fold of IP1 production in vehicle-treated mice (n = 5 animals per treatment condition; one-way ANOVA followed by Dunnett’s post hoc: compared to vehicle at 1h: *p < 0.1 and **p < 0.01 compared to vehicle).

human 5-HT2AR [4] = biological target: T1, human 5-HT2AR
Method: as §1, §2

human 5-HT2AR [5] = biological target: T1, human 5-HT2AR; experiment: EMTA ebBRET biosensor, agonist mode, Gαq family (p63-RlucII/rGFP-CAAX); conditions: normalized as % response of 5-HT, NA: no activity
Method: as §1, §2

T1 sequence (P28223 whole entry): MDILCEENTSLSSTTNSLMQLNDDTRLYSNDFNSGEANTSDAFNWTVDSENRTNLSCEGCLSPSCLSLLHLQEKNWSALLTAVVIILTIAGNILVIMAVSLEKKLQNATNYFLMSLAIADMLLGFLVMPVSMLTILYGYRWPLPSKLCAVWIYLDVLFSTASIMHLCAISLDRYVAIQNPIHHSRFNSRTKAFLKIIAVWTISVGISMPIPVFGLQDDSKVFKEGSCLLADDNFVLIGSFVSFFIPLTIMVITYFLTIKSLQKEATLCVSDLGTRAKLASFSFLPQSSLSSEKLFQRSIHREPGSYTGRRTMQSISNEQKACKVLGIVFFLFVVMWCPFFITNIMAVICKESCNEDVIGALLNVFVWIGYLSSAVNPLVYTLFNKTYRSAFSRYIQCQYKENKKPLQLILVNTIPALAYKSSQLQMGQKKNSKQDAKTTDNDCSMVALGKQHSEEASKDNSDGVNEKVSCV

Compound	activation at Gαi1 and Gαz (human 5-HT2AR [1])	recruitment of β-arrestin1 (human 5-HT2AR [2])	increase in IP1 levels compared to the vehicle condition ([3]; 2 mg/Kg i.p.) [%]	% inhibition ± SEM (human 5-HT2AR [4]) [%]	Emax (%) ± SEM (human 5-HT2AR [1]; Gαi1) [%]	Emax (%) ± SEM (human 5-HT2AR [1]; Gαi2) [%]	Emax (%) ± SEM (human 5-HT2AR [1]; Gαi3) [%]	Emax (%) ± SEM (human 5-HT2AR [1]; GαoA) [%]	Emax (%) ± SEM (human 5-HT2AR [1]; GαoB) [%]	Emax (%) ± SEM (human 5-HT2AR [1]; Gαz) [%]	activation at the Gαi/o/z family (human 5-HT2AR [1]; agonist mode, baseline vs maximal response, words)	Emax (%) ± SEM (human 5-HT2AR [5]; Gα11) [%]	Emax (%) ± SEM (human 5-HT2AR [5]; Gα14) [%]	Emax (%) ± SEM (human 5-HT2AR [5]; Gα15) [%]	Emax (%) ± SEM (human 5-HT2AR [5]; Gαq) [%]	reduction in IP1 ([3]; 3 mg/Kg i.p., vs vehicle) [%]
O=C1CCc2ccc(OCCCCN3CCN(c4cccc(Cl)c4Cl)CC3)cc2N1 [Aripiprazole, aripiprazole]	very weak yet statistically significant activation	very weak yet statistically significant recruitment	10.5 ± 1.6	–	–	–	–	–	–	–	–	–	–	–	–	–
CN(C)C(=O)N[C@H]1CC[C@H](CCN2CCN(c3cccc(Cl)c3Cl)CC2)CC1 [Cariprazine, cariprazine]	–	did not	–	> 50	12.72 ± 3.42	11.72 ± 2.50	16.05 ± 2.57	11.59 ± 2.44	4.32 ± 2.16	9.02 ± 0.88	did not show statistically significant activation	70.72 ± 4.97	68.10 ± 3.05	13.93 ± 0.53	67.99 ± 4.29	–
Cc1nc2n(c(=O)c1CCN1CCC(c3noc4cc(F)ccc34)CC1)CCCC2 [Risperidone, risperidone]	–	–	–	–	–	–	–	–	–	–	–	–	–	–	–	9.2 ± 1.2
